Results as given in ChEMBL document CHEMBL5236544, “Furazans in Medicinal Chemistry” (J Med Chem, 2021).
≈ marks a conversion by molar mass, not a printed value.

Assays:
[1] = Inhibition of rabbit GSK-3beta using CREB Phosphopeptide ( Lys-Arg-Arg-Glu-Ile-Leu-Ser-Arg-Arg-Pro-Ser(P)-Tyr-Arg) as substrate by scintillation counter method; parameters: species or system Oryctolagus cuniculus
[2] = Inhibition of ROMK (unknown origin); parameters: species or system Homo sapiens
[3] = Inhibition of LPS induced TNF-alpha secretion in human THP-1 cells pretreated with LPS for 1 hr followed by compound addition and measured after 3 hrs by ELISA method; assay type: functional, cell-based
[4] = Binding affinity to human erythrocyte nucleoside transport protein assessed as inhibition constant; assay type: cell-based
[5] = system: Respiratory syncytial virus; assay: Antiviral activity against RSV; assay type: functional, organism-based; settings: human respiratory syncytial virus
Streptococcus pneumoniae = assay: Antibacterial activity against Streptococcus pneumoniae assessed as reduction in bacterial growth by broth microdilution method; assay type: functional
Staphylococcus aureus = assay: Antibacterial activity against Staphylococcus aureus assessed as reduction in bacterial growth by broth microdilution method; assay type: functional
Haemophilus influenzae = assay: Antibacterial activity against Haemophilus influenzae assessed as reduction in bacterial growth by broth microdilution method; assay type: functional
LNCaP = assay: Antiproliferative activity against human LNCaP cells assessed as reduction in cell viability; assay type: functional, cell-based
HCT-116 = assay: cells; settings: Homo sapiens
HT-29 = assay: cells; settings: Homo sapiens
Description: Antiproliferative activity against human HT-29 cells assessed as reduction in cell viability

Mus musculus = organism: Mus musculus; assay: Anti-inflammatory activity in LPS-induced inflammatory mouse model assessed as reduction in neutrophil influx; assay type: functional
Rattus norvegicus = organism: Rattus norvegicus; assay: Anti-inflammatory activity against ovalbumin induced lung inflammatory rat model assessed as reduction in eosinophil influx; assay type: functional
[6] = Anti-inflammatory activity against human PBMCs assessed as reduction in LPS-induced TNF-alpha release by ELISA analysis; assay type: functional, cell-based; settings: PBMC
[7] = biological target: T1, Amyloid-beta precursor protein (Homo sapiens, UniProt P05067); assay: Inhibition of amyloid beta (unknown origin) at 5 uM relative to control
[8] = biological target: Microtubule-associated protein tau (Homo sapiens) (UniProt P10636); assay: Inhibition of tau (unknown origin) at 5 uM relative to control
Influenza A virus = assay: Antiviral activity against influenza A H1N1; assay type: functional, organism-based
[9] = biological target: T1, Amyloid-beta precursor protein; assay: Inhibition of amyloid beta (unknown origin) aggregation at 10 uM relative to control
Lactate dehydrogenase = Lactate dehydrogenase (Plasmodium falciparum, UniProt Q0PJ46); assay: Inhibition of recombinant Plasmodium falciparum LDH
[10] = Inhibition of human recombinant LDH
[11] = biological target: Cyclin-dependent kinase inhibitor 1 (Homo sapiens, UniProt P38936); assay: Inhibition of p21 (unknown origin)
HeLa = assay: Antiproliferative activity against human HeLa cells assessed as reduction in cell proliferation incubated for 72 hrs by MTS assay; assay type: functional, cell-based
BaF3 = assay: Antiproliferative activity against mouse BaF3 cells transfected with FLT3-ITD assessed as cell growth inhibition; assay type: functional, cell-based
[12] = biological target: Ribosomal protein S6 kinase alpha-1 (Homo sapiens, UniProt Q15418); assay: Inhibition of RSK1 (unknown origin)
[13] = biological target: Mitogen-activated protein kinase 14 (Homo sapiens) (UniProt Q16539); assay: Inhibition of recombinant p38alpha MAPK (unknown origin) at 10 uM preincubated for 10 mins followed by substrate addition and measured after 40 mins in the presence of ATP by ADP-Glo assay; settings: time 60.0 min
[14] = biological target: Tumor necrosis factor (Homo sapiens) (UniProt P01375); assay: Inhibition of TNF-alpha secretion in human THP-1 cells; parameters: concentration or dose not given beside the values; settings: concentration not given here
MDR1 = assay: Efflux ratio of permeability in dog MDCK-MDR1 cells; assay type: ADME, cell-based, Canis lupus familiaris
Daudi = assay: Antiproliferative activity against human Daudi assessed as inhibition of cell proliferation by MTT assay; assay type: functional, cell-based
HL-60 = assay: Antiproliferative activity against (unknown origin) HL-60 assessed as inhibition of cell proliferation by MTT assay; assay type: functional, cell-based; settings: Homo sapiens
[15] = biological target: Ribosomal protein S6 kinase alpha-5 (Homo sapiens, UniProt O75582); assay: Inhibition of MSK-1 (unknown origin)
Ribosomal protein S6 kinase alpha-5, sequence (O75582 whole entry): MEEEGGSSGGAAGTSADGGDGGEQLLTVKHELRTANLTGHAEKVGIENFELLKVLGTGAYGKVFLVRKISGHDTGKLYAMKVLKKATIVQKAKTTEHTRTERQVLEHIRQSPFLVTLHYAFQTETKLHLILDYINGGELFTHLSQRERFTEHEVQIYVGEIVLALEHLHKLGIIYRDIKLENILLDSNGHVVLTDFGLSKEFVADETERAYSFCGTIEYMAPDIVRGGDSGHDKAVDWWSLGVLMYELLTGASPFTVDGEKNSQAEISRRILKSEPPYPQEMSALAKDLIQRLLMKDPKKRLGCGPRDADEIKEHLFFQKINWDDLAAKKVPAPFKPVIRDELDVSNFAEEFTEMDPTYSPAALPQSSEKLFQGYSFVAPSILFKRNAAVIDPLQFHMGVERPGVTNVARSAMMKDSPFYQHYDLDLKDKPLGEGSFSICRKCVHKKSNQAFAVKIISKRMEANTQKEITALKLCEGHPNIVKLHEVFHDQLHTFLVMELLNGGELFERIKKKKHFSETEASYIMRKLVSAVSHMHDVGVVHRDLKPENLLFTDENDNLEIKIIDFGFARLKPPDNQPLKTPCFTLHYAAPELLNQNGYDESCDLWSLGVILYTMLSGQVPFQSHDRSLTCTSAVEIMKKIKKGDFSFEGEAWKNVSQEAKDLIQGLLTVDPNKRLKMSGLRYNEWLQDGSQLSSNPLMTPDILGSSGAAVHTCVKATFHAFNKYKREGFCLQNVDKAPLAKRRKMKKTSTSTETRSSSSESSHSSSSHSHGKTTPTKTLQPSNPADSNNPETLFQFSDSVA

Microtubule-associated protein tau (Homo sapiens), sequence (P10636 whole entry): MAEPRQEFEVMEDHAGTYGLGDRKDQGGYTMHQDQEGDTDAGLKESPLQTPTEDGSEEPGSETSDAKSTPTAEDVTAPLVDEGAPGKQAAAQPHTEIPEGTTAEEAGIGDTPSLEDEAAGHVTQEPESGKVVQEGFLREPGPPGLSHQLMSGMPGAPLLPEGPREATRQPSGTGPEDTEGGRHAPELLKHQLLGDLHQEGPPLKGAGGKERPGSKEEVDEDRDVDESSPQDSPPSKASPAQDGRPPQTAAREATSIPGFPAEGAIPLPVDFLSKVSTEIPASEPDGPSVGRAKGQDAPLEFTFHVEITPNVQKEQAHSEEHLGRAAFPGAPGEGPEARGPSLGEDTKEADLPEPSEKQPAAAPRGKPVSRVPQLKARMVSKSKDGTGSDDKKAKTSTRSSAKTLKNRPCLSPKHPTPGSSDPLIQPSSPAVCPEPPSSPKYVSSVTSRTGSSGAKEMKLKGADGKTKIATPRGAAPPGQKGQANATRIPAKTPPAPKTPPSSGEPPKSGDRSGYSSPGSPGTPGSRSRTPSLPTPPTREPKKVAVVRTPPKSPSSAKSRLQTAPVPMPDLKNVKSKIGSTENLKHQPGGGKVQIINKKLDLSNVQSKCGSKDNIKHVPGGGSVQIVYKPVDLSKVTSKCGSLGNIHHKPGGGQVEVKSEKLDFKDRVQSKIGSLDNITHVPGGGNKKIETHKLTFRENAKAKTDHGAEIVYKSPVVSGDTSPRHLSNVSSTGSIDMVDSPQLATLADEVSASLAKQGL
Mitogen-activated protein kinase 14 (Homo sapiens), sequence (Q16539 whole entry): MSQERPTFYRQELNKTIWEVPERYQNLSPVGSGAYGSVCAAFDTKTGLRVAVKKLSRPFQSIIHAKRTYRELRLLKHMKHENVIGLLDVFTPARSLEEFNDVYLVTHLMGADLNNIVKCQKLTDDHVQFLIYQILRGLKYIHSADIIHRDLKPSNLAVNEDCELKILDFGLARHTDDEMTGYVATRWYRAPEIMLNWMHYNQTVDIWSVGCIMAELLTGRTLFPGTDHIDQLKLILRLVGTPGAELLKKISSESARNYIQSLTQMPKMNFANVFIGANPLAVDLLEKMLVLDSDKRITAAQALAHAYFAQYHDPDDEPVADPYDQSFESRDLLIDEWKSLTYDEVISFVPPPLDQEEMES
T1 sequence (P05067 whole entry): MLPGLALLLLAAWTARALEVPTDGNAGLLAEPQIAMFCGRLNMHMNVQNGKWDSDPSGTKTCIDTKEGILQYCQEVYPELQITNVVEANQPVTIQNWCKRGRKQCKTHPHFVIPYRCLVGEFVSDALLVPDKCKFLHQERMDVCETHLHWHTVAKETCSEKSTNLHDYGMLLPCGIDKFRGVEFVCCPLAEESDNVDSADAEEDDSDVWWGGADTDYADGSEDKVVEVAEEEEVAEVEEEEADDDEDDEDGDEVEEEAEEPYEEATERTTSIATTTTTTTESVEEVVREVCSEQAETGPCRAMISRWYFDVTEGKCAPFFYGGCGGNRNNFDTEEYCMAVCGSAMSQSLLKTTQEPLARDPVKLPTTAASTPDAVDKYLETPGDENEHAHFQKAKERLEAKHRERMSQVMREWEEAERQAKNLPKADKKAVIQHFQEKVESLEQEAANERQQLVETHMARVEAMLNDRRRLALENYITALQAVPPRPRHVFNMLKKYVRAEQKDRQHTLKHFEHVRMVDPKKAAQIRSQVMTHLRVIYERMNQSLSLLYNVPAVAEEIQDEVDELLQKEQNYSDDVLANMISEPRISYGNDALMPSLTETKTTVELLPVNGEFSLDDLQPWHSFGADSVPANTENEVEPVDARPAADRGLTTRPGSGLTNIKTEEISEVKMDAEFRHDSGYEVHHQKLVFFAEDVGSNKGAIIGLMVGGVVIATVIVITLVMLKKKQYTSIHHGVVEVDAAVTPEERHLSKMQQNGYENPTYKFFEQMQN
Tumor necrosis factor (Homo sapiens), sequence (P01375 whole entry, looked up): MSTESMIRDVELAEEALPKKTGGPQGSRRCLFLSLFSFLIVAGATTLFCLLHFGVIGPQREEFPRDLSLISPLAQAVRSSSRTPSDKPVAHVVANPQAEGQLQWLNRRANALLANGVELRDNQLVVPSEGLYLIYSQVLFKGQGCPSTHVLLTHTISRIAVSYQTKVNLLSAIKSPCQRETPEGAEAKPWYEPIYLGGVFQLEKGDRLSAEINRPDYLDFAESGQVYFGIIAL
Lactate dehydrogenase, sequence (Q0PJ46 whole entry): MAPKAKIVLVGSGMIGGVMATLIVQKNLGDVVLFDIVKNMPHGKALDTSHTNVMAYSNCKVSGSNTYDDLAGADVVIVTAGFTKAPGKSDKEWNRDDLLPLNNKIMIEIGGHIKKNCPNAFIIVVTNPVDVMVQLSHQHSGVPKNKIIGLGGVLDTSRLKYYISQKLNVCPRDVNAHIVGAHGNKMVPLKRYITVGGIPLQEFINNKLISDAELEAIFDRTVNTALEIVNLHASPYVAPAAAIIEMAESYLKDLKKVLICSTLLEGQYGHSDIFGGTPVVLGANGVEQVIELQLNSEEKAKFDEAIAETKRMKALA
Ribosomal protein S6 kinase alpha-1, sequence (Q15418 whole entry): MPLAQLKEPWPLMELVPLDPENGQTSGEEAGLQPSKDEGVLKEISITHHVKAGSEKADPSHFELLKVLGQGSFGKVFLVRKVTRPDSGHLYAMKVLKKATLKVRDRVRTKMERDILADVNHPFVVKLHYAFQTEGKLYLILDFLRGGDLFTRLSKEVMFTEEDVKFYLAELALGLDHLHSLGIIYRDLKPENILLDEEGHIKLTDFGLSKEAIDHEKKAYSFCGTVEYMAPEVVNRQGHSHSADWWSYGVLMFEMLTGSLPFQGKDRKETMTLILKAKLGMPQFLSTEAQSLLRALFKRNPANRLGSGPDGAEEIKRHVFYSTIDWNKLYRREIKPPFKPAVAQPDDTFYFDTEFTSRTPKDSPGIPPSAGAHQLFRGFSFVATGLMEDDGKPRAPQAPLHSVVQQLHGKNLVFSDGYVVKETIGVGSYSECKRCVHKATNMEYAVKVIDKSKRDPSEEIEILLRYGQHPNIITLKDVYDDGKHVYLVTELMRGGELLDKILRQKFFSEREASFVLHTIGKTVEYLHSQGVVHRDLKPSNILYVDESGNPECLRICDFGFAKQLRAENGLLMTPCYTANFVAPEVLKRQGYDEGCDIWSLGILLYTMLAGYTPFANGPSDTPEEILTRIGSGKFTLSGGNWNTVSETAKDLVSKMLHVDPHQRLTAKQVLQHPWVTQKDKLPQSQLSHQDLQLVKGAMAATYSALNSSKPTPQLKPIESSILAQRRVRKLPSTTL
Cyclin-dependent kinase inhibitor 1, sequence (P38936 whole entry): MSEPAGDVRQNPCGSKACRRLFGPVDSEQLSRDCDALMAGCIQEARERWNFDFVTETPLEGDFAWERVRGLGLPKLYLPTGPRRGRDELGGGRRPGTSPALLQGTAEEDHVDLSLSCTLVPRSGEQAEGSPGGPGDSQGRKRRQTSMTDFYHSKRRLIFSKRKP

In the case of `CN(C)C1CCC(C2=C(C#N)C(c3cccc4nonc34)c3c[nH]nc3N2)CC1` (stereo unspecified), the IC50 [1] is reported as 4.1 nM.
With `N#Cc1ccc(CCN2CCN(CCc3ccc4nonc4c3)CC2)cc1` the IC50 [2] was 1900 nM.
With `O=[N+]([O-])c1ccc(Nc2cc(Cl)ccc2O)c2nonc12` the EC50 [3] was 3500 nM.
With `OC[C@H]1O[C@@H](n2cnc3c(SCc4ccc5nc[nH]c5c4)ncnc32)[C@H](O)[C@@H]1O` the Ki [4] was 191 nM.
`O=[N+]([O-])c1ccc(Nc2ccc(Cl)cc2)c2nonc12` showed an IC50 [5] of 2000 nM.
In the case of `Oc1nc2nonc2nc1-c1ccc(F)cc1`, the MIC (Streptococcus pneumoniae) is reported as 280 µM (≈ 65 µg/mL), the MIC (Staphylococcus aureus) is reported as 280 µM (≈ 65 µg/mL) and the MIC (Haemophilus influenzae) is reported as 4.3 µM (≈ 0.998 µg/mL).
Molecule `Oc1nc2nonc2nc1-c1ccc(Oc2ccccc2)cc1` has an MIC (Streptococcus pneumoniae) of 0.21 µM (≈ 0.0643 µg/mL), an MIC (Staphylococcus aureus) of 13 µM (≈ 3.98 µg/mL) and an MIC (Haemophilus influenzae) of 26 µM (≈ 7.96 µg/mL).
In the case of `Cn1c(N2CCO[C@@H](c3ccc(F)cc3)C2)nc(-c2ccncn2)cc1=O`, the IC50 [1] is reported as 12 nM.
In the case of `COc1ccc2c(c1)c(CC(=O)O)c(C)n2C(=O)c1ccc(Cl)cc1` [INDOMETHACIN], the EC50 (LNCaP) is reported as 238000 nM, the EC50 (HCT-116) is reported as 137000 nM and the EC50 (HT-29) is reported as 313000 nM.
Molecule `O=C(Nc1c(Cl)cncc1Cl)c1ccc(OC(F)F)c(OCC2CC2)c1` [ROFLUMILAST] has an ED50 (Mus musculus) of 0.031 µmol/kg, an ED50 (Rattus norvegicus) of 0.0018 µmol/kg and an EC50 [6] of 50 nM.
`COc1ccc([C@]2(C#N)CC[C@@H](C(=O)O)CC2)cc1OC1CCCC1` [CILOMILAST] gave an ED50 (Mus musculus) greater than 0.03 µmol/kg, an ED50 (Rattus norvegicus) of 0.017 µmol/kg and an EC50 [6] of 3.47 nM.
`OC1CN(c2cc(-c3cccc(C(O)C(F)(F)F)c3)cc3nonc23)C1` (stereo unspecified) showed an inhibition [7] of 53% and an inhibition [8] of 87%.
With `O=C(NCCSc1ccc([N+](=O)[O-])c2nonc12)c1cccnc1` the IC50 (Influenza A virus) was 1000 nM.
For `COC1CN(c2cc(-c3cccc(C(O)C(F)(F)F)c3)cc3nonc23)C1` (stereo unspecified), the inhibition [7] was 51% and the inhibition [8] was 89%.
In the case of `O=C1OCc2cc(CCN3CCN(CCc4ccc5nonc5c4)CC3)ccc21`, the IC50 [2] is reported as 2200 nM.
Work on `CC(O)c1cccc(-c2cc(NCc3ccccc3)c3nonc3c2)c1` (stereo unspecified) yielded an inhibition [9] of 66.3%.
For `Cn1nc(O)c(C(=O)O)n1`, the IC50 (Lactate dehydrogenase) was greater than 100000 nM and the IC50 [10] was greater than 100000 nM.
In the case of `N#CC1=C(C2CCCCC2=O)Nc2n[nH]cc2C1c1cccc2nonc12` (stereo unspecified), the IC50 [1] is reported as 1.8 nM.
In the case of `CCOC(=O)c1ccc(Nc2nc3nonc3nc2Nc2cccc(C)c2C)cc1`, the IC50 [11] is reported as 760 nM.
`Nc1ccnn1-c1nc2ccccc2n1CC(=O)c1ccc(Cl)cc1` showed an EC50 (HeLa) greater than 1000 nM.
With `O=C(O)c1nonc1NCn1nnnc1CCc1ccccc1` the EC50 (BaF3) was 2100 nM.
Molecule `OC[C@H]1O[C@@H](n2cnc3c(SCc4cccc5nc[nH]c45)ncnc32)[C@H](O)[C@@H]1O` has a Ki [4] greater than 10 nM.
`Cn1cnc(COc2ccc3c(c2)C(C)(O)O[C@]32CC[C@H](n3c(-c4nonc4N)nc4cc(F)ccc43)CC2)n1` (stereo partly specified) showed an IC50 [12] of 3 nM.
Molecule `CCOC(=O)c1ccc(Nc2nc3nonc3nc2N2CCC(Sc3ccc(Cl)cc3)CC2)cc1` has an inhibition [13] of 86% and an inhibition [14] of 36%.
`O=[N+]([O-])c1ccc(Nc2ccc(F)cc2)c2nonc12` gave an IC50 [5] of 4000 nM.
`CCCOc1ccc(Nc2nc3nonc3nc2N2CCC(Sc3ccc(C)cc3)CC2)cc1` gave an inhibition [13] of 100% and an inhibition [14] of 65%.
For `Oc1nc2nonc2nc1-c1ccc(Br)cc1`, the MIC (Streptococcus pneumoniae) was 0.22 µM (≈ 0.0645 µg/mL), the MIC (Staphylococcus aureus) was 55 µM (≈ 16.1 µg/mL) and the MIC (Haemophilus influenzae) was 3.4 µM (≈ 0.996 µg/mL).
With `COc1cc2c(cc1OC)CN(Cc1ccc(-c3ccc(O)cc3)cc1)CC2` the efflux ratio (MDR1) was 0.69.
In the case of `COC(=O)c1ccc(Nc2ccc([N+](=O)[O-])c3nonc23)c(-c2ccc(C)cc2)c1`, the EC50 (Daudi) is reported as 1300 nM and the EC50 (HL-60) is reported as 3500 nM.
`COc1ccc(C(=O)Cn2c(-n3ncnc3N)nc3ccccc32)cc1` gave an EC50 (HeLa) of 100 nM.
In the case of `Nc1ncnn1-c1nc2ccccc2n1CC(=O)c1ccc(Cl)cc1`, the EC50 (HeLa) is reported as 100 nM.
`OC(c1cccc(-c2cc(N3CCC(N4CCCC4)CC3)c3nonc3c2)c1)C(F)(F)F` (stereo unspecified) showed an inhibition [7] of 40% and an inhibition [8] of 64%.
Molecule `O=[N+]([O-])c1ccc(Nc2cccc(F)c2F)c2nonc12` has an EC50 [3] of 2800 nM.
Work on `CCCNC(=O)c1ccc(Nc2nc3nonc3nc2N2CCC(Sc3ccc(C)cc3)CC2)cc1` yielded an inhibition [13] of 90% and an inhibition [14] of 60%.
In the case of `CCn1c(-c2c[nH]nc2N)nc2cnccc21`, the IC50 [15] is reported as 55 nM.
Molecule `Nc1ccc(C(=O)Cn2c(-c3nonc3N)nc3ccccc32)cc1` has an EC50 (HeLa) of 10 nM.
`CCOC(=O)c1ccc(Nc2nc3nonc3nc2N2CCC(Sc3ccc(C)cc3)CC2)cc1` gave an inhibition [13] of 61% and an inhibition [14] of 32%.
`Oc1nc2nonc2nc1-c1ccc(Cl)cc1` showed an MIC (Streptococcus pneumoniae) of 0.5 µM (≈ 0.124 µg/mL), an MIC (Staphylococcus aureus) of 64 µM (≈ 15.9 µg/mL) and an MIC (Haemophilus influenzae) of 4 µM (≈ 0.995 µg/mL).
